Assay results reported in ChEMBL document CHEMBL4311992, “Discovery of 3-(((9H-purin-6-yl)amino)methyl)-4,6-dimethylpyridin-2(1H)-one derivatives as novel tubulin polymerization inhibitors for treatment of cancer” (Eur J Med Chem, 2019).

Experiments:
[1] = test system: HCT-116; assay: Induction of apoptosis in human HCT116 cells assessed as early apoptotic cells at 25 nM measured after 48 hrs by Annexin V-FITC/propidium iodide staining-based flow cytometry (reference value: 0.418%); assay type: functional
[2] = target: Ribosomal protein S6 kinase alpha-4 (Homo sapiens) (UniProt O75676); assay: Inhibition of recombinant human MSK2 (2 to end residues) assessed as residual activity at 10 uM using GRPRTSSFAEGKK as substrate measured after 40 mins in presence of [gamma33P]ATP by scintillation counting method
[3] = target: G protein-coupled receptor kinase 6 (Homo sapiens) (UniProt P43250); assay: Inhibition of recombinant full-length human GRK6 assessed as residual activity at 10 uM using casein as substrate measured after 40 mins in presence of [gamma33P]ATP by scintillation counting method
[4] = test system: TGF-beta receptor type-1 (Homo sapiens), P36897 [T204D]; assay: Inhibition of human TGFBR1 T204D mutant (200 to end residues) using casein as substrate measured after 40 mins in presence of [gamma33P]ATP by scintillation counting method; set-up: scale not given: the % may be the effect or the level left
[5] = target: Serine/threonine-protein kinase WNK2 (Homo sapiens) (UniProt Q9Y3S1); assay: Inhibition of human WNK2 (166 to 489 residues) using myelin basic protein as substrate measured after 40 mins in presence of [gamma33P]ATP by scintillation counting method; set-up: scale not given: the % may be the effect or the level left
[6] = organism: Homo sapiens; assay: Inhibition of recombinant full-length human PKBalpha S478G mutant assessed as residual activity at 10 uM using GRPRTSSFAEGKK as substrate measured after 40 mins in presence of [gamma33P]ATP by scintillation counting method
[7] = target: Cyclin-dependent kinase 5/CDK5 activator 1 (Homo sapiens) (UniProt Q00535+Q15078); assay: Inhibition of recombinant full-length human CDK5/p25 assessed as residual activity at 10 uM using histone H1 as substrate measured after 40 mins in presence of [gamma33P]ATP by scintillation counting method; assay type: protein-complex assay
Sequence of Cyclin-dependent kinase 5/CDK5 activator 1 (Homo sapiens) (Q00535 whole entry, the tested form may be a part): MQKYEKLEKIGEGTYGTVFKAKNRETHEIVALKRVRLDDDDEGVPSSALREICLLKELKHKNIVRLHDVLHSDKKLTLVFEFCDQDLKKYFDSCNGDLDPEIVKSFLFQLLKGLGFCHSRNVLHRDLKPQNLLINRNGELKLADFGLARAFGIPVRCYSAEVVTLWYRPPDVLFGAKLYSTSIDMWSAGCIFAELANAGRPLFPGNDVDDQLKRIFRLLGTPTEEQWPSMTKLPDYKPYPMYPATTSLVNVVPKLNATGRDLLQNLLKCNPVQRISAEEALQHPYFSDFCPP
Sequence of Cyclin-dependent kinase 5/CDK5 activator 1 (Homo sapiens) (Q15078 99-307 partner limits assumed): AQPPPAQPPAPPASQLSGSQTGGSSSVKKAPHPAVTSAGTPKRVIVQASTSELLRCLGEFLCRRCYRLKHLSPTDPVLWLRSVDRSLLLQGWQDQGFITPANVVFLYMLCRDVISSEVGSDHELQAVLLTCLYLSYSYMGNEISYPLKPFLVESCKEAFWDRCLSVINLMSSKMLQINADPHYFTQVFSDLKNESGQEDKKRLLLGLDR

[8] = test system: Serine/threonine-protein kinase TAO3 (Homo sapiens), Q9H2K8 [UNDEFINED MUTATION]; assay: Inhibition of human TAO3 (1 to 411 residues) using myelin basic protein as substrate measured after 40 mins in presence of [gamma33P]ATP by scintillation counting method; set-up: scale not given: the % may be the effect or the level left
Sequence of Serine/threonine-protein kinase TAO3 (Homo sapiens), Q9H2K8 [UNDEFINED MUTATION] (Q9H2K8 whole entry, looked up, stated change not applied, the tested form may be a part): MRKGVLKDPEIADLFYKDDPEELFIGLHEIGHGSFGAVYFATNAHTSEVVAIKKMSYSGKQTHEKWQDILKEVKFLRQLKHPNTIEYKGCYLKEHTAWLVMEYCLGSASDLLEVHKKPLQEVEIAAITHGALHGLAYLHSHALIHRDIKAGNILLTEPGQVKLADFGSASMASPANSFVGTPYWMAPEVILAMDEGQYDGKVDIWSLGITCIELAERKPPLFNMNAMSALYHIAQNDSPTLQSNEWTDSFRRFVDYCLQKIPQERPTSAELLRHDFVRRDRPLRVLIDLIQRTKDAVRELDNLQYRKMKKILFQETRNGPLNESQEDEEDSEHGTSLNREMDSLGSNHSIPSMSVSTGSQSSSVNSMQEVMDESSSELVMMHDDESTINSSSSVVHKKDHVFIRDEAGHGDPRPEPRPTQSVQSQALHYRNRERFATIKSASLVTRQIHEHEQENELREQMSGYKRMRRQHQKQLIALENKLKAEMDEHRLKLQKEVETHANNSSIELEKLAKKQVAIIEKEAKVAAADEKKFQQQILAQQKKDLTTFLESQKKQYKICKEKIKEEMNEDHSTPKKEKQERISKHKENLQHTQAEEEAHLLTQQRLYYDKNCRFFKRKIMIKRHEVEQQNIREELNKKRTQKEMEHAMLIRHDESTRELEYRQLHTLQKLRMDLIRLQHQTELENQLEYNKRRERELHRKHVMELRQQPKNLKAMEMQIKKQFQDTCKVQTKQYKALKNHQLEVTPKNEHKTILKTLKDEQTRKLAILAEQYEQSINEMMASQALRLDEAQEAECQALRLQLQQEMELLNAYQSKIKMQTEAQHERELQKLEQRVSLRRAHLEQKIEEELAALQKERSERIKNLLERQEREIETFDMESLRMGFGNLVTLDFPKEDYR

[9] = target: PI3K p110 delta/p85 alpha (Mus musculus) (UniProt P26450+O35904); assay: Inhibition of recombinant full-length mouse PI3K p110delta/p85alpha assessed as residual activity at 10 uM using phosphatidylinositol-4, 5-bisphosphate as substrate measured after 40 mins by HTRF assay; assay type: protein-complex assay
[10] = test system: SW480; assay: Antiproliferative activity against human SW480 cells assessed as reduction in cell viability after 72 hrs by MTT assay; assay type: functional, cell-based; conditions: SW480, 72 h
[11] = target: Serine/threonine-protein kinase Chk2 (Homo sapiens) (UniProt O96017); assay: Inhibition of recombinant human CHK2 (5 to end residues) assessed as residual activity at 10 uM using KKKVSRSGLYRSPSMPENLNRPR as substrate measured after 40 mins in presence of [gamma33P]ATP by scintillation counting method
[12] = organism: Homo sapiens; assay: Inhibition of recombinant human MARK1 T20S mutant (2 to end residues) assessed as residual activity at 10 uM using KKKVSRSGLYRSPSMPENLNRPR as substrate measured after 40 mins in presence of [gamma33P]ATP by scintillation counting method
[13] = target: Dual specificity mitogen-activated protein kinase kinase 1 (Homo sapiens) (UniProt Q02750); assay: Inhibition of recombinant full-length human MEK1 assessed as residual activity at 10 uM using unactive MAPK2 as substrate measured after 40 mins in presence of [gamma33P]ATP by scintillation counting method
Sequence of Dual specificity mitogen-activated protein kinase kinase 1 (Homo sapiens) (Q02750 whole entry): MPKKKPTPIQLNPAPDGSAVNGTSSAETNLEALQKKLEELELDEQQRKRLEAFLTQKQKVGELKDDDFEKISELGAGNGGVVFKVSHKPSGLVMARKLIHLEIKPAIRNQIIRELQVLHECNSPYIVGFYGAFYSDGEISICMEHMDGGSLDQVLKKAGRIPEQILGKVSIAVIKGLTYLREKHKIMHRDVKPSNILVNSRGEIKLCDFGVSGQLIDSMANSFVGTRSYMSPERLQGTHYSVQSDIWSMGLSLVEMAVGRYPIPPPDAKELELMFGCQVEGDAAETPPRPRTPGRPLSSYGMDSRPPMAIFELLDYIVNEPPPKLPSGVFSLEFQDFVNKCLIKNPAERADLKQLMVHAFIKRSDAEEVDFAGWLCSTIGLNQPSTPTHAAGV

[14] = test system: SW-620; assay: Antiproliferative activity against human SW620 cells assessed as reduction in cell viability after 72 hrs by MTT assay; assay type: functional, cell-based; conditions: SW-620, 72 h
[15] = target: Serine/threonine-protein kinase pim-1 (Homo sapiens) (UniProt P11309); assay: Inhibition of recombinant full-length human Pim1 assessed as residual activity at 10 uM using KKRNRTLTV as substrate measured after 40 mins in presence of [gamma33P]ATP by scintillation counting method
[16] = test system: Epidermal growth factor receptor (Homo sapiens), P00533 [L858R]; assay: Inhibition of recombinant human EGFR L858R mutant (696 to end residues) assessed as residual activity at 10 uM using poly(Glu, Tyr) 4:1 as substrate measured after 40 mins in presence of [gamma33P]ATP by scintillation counting method
[17] = test system: Serine/threonine-protein kinase Sgk1 (Homo sapiens), O00141 [S422D]; assay: Inhibition of recombinant human SGK S422D mutant (60 to end residues) assessed as residual activity at 10 uM using GRPRTSSFAEGKK as substrate measured after 40 mins in presence of [gamma33P]ATP by scintillation counting method
[18] = target: Calcium/calmodulin-dependent protein kinase type II subunit alpha (Homo sapiens) (UniProt Q9UQM7); assay: Inhibition of recombinant full-length human CaMK2alpha assessed as residual activity at 10 uM using calmodulin as substrate measured after 40 mins in presence of [gamma33P]ATP by scintillation counting method
[19] = target: Tyrosine-protein kinase ABL1 (Homo sapiens) (UniProt P00519); assay: Inhibition of recombinant human ABL (27 to end residues) assessed as residual activity at 10 uM using EAIYAAPFAKKK as substrate measured after 40 mins in presence of [gamma33P]ATP by scintillation counting method
Sequence of Tyrosine-protein kinase ABL1 (Homo sapiens) (P00519 whole entry): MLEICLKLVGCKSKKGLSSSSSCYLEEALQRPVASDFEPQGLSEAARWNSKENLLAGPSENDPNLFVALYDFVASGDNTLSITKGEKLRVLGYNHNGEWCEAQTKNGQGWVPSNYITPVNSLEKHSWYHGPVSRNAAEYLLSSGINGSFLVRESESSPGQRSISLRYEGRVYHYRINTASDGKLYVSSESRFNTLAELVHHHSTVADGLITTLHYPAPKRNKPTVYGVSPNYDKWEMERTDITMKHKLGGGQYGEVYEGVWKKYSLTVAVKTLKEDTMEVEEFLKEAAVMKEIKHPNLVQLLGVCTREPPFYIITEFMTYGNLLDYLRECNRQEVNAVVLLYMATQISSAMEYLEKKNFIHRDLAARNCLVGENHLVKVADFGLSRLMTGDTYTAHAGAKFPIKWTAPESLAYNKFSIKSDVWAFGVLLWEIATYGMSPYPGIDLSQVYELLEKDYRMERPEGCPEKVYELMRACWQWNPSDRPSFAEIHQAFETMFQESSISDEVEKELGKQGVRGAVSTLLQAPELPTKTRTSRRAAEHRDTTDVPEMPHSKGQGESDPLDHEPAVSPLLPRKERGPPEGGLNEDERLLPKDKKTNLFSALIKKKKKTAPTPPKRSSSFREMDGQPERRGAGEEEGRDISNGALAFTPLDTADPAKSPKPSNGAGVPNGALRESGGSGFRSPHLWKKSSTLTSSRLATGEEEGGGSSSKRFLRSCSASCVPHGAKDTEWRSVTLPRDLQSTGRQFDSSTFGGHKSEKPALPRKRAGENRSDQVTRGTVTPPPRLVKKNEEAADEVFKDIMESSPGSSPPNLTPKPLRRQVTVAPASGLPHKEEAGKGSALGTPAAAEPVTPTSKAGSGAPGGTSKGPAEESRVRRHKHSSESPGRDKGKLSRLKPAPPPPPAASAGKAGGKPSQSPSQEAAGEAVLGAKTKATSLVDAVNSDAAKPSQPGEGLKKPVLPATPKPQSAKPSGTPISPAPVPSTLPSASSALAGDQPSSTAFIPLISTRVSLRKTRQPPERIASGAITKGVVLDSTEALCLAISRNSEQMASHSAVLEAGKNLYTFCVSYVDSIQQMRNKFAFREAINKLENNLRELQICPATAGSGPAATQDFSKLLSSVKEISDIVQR

[20] = target: Cyclin-dependent kinase-like 2 (Homo sapiens) (UniProt Q92772); assay: Inhibition of human CDKL2 assessed as residual activity at 10 uM by radiometric method
Sequence of Cyclin-dependent kinase-like 2 (Homo sapiens) (Q92772 whole entry, the tested form may be a part): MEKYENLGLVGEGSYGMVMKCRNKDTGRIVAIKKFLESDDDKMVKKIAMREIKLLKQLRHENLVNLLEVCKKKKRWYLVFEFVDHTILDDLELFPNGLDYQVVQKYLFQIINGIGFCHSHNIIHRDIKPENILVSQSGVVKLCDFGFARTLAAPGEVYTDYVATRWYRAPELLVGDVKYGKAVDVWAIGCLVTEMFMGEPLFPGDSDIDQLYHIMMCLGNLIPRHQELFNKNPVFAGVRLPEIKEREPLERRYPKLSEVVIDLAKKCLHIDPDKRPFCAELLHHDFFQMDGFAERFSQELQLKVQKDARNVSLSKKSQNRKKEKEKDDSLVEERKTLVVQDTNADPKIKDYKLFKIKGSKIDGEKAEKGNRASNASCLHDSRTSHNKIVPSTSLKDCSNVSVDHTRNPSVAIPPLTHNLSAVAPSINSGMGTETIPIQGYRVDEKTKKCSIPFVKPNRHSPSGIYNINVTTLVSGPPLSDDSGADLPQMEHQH

[21] = organism: Homo sapiens; assay: Inhibition of recombinant full-length human PI3K p110alpha/p65alpha (1 to 571 residues) assessed as residual activity at 10 uM using phosphatidylinositol-4, 5-bisphosphate as substrate measured after 40 mins by HTRF assay
[22] = target: Serine/threonine-protein kinase 10 (Homo sapiens) (UniProt O94804); assay: Inhibition of recombinant human LOK (1 to 348 residues) assessed as residual activity at 10 uM using RLGRDKYKTLRQIRQ as substrate measured after 40 mins in presence of [gamma33P]ATP by scintillation counting method
Sequence of Serine/threonine-protein kinase 10 (Homo sapiens) (O94804 whole entry, looked up, the tested form may be a part): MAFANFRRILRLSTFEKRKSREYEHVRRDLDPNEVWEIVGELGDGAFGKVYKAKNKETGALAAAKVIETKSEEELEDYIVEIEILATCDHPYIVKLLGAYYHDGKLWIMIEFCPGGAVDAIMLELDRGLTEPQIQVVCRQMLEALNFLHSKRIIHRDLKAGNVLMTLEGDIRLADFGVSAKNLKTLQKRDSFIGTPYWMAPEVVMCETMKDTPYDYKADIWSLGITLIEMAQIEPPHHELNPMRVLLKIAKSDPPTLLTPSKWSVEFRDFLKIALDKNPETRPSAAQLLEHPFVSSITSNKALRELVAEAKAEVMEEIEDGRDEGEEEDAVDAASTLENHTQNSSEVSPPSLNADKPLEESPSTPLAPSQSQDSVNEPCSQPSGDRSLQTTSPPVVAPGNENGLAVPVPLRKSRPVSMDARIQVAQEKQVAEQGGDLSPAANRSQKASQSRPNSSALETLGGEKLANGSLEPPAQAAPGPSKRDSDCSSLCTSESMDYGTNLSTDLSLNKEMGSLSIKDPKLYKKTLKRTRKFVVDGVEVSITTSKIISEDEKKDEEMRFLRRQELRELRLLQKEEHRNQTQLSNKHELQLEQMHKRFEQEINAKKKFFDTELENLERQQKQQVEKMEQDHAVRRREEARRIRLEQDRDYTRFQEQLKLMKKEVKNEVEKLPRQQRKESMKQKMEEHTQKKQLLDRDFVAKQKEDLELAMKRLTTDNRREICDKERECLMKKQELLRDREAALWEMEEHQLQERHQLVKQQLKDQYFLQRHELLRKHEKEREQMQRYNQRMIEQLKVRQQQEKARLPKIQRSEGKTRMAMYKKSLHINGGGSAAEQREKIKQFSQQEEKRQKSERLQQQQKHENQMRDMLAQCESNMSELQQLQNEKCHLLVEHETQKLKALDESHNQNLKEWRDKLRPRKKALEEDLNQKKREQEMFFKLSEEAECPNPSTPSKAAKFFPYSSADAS

[23] = target: Calcium/calmodulin-dependent protein kinase type 1 (Homo sapiens) (UniProt Q14012); assay: Inhibition of recombinant human CaMK1 (2 to end residues) assessed as residual activity at 10 uM using […] as substrate measured after 40 mins in presence of [gamma33P]ATP by scintillation counting method
Sequence of Calcium/calmodulin-dependent protein kinase type 1 (Homo sapiens) (Q14012 whole entry, looked up, the tested form may be a part): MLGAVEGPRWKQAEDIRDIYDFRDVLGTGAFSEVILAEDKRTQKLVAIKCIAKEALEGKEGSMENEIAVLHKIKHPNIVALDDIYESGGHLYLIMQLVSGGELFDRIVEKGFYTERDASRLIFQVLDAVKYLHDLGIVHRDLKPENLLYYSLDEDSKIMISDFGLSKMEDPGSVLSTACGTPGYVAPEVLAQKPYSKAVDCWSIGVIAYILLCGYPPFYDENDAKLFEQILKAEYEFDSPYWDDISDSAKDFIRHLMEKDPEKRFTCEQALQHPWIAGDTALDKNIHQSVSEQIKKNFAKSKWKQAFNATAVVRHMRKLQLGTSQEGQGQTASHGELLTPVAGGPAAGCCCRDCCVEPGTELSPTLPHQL

[24] = target: Mitogen-activated protein kinase kinase kinase 7 (Homo sapiens) (UniProt O43318); assay: Inhibition of human TAK1 (1 to 303 residues) using casein as substrate measured after 40 mins in presence of [gamma33P]ATP by scintillation counting method; set-up: scale not given: the % may be the effect or the level left
[25] = target: Cyclin-Y/Cyclin-dependent kinase 16 (Homo sapiens) (UniProt Q00536+Q8ND76); assay: Inhibition of recombinant full length human CDK16/cyclinY assessed as residual activity at 10 uM using PKSPKARKKL as substrate measured after 120 mins in presence of [gamma33P]ATP by scintillation counting method; assay type: protein-complex assay

Structure (SMILES): Cc1cc(C)c(CNc2nc(Cl)nc3c2ncn3C2CCCC2)c(=O)[nH]1
- Activity [1]: 1.54%
- Activity [2]: 120%
- Activity [3]: 104%
- Activity [4]: 98%
- Activity [5]: 110%
- Activity [6]: 105%
- Activity [7]: 94%
- Activity [8]: 97%
- Activity [9]: 100%
- IC50 [10]: 64.5 nM
- Activity [11]: 105%
- Activity [12]: 112%
- Activity [13]: 100%
- IC50 [14]: 60 nM
- Activity [15]: 106%
- Activity [16]: 104%
- Activity [17]: 136%
- Activity [18]: 92%
- Activity [19]: 108%
- Activity [20]: 131%
- Activity [21]: 93%
- Activity [22]: 91.5%
- Activity [23]: 109%
- Activity [24]: 98.5%
- Activity [25]: 123%
